# Assay: Anticoagulant activity ex vivo, prothrombin time
# Assay type: in vivo, OFA rats
# Details: i.v.
# Description: OFA rats, fasted or otherwise, are anesthetized with pentobarbital (60 mg/kg i.p.). The carotid and the jugular are exposed and catheterized. The catheters are flushed with citrated (1/40) physiological solution. After installation of the catheters, a sample of 1.5 cm^3 of arterial blood is withdrawn into 0.109M citrate (1/9).
# 30 minutes later, the test product is admini- stered i.v. in a volume of 1 ml.
# Arterial blood samples (1.5 ml) are then withdrawn at 1 min 30 sec, 3 min, 5 min, 15 min, 30 min and 60 min.
# As each sample is withdrawn, 1.5 ml of citrated physiological solution is reinjected into the animal via the carotid.
# The blood tubes are centrifuged for 15 min at 4000 rpm (preparation of plasma).
# 100 μl of plasma are incubated with 200 μl of neoplastin calcium. The time of onset of the coagulation phenomenon is measured.
substance,measurement,value
hirudin,duration of in vivo activity,30 min

# Source: patent US5371071A, “Peptide and pseudopeptide compounds which are therapeutically active in the blood coagulation cascade” (Adir et Compagnie, priority 1992, dated 1994)
